Reference: EP0404945A1 (priority 1989, dated 1990)
Like-named read-outs stand apart in the source and are kept apart here.

Tests used:
Staphylococcus aureus = assay: microbe, parasite or virus in culture; type: cell-based; conditions: read-out: Efficiency of the preparation, % Staphylococcus aureus
Colibacillus = assay: microbe, parasite or virus in culture; type: cell-based; conditions: read-out: Efficiency of the preparation, % Colibacillus
Fusarium oxysporum = type: cell-based
Candida tropicalis = assay: microbe, parasite or virus in culture; type: cell-based
Helminthosporum saturem = type: cell-based
Alternaria radicina = type: cell-based
ascarid ovi = assay: animal or person; type: in vivo, pig.ascarid
Penicillium sporum = type: cell-based
[1] = test system: Infectant of poliomyelitis
Venturia inaequalis = type: cell-based
Candida albicans = assay: microbe, parasite or virus in culture; type: cell-based
Aspergillus niger = type: cell-based
[2] = test system: virus of influenza, type A, (H1N1); assay: microbe, parasite or virus in culture
houseflies [3] = assay: whole plant or invertebrate; conditions: Musca domestica; for mortality at 1 %: read-out: Death of flies, % Tests laboratory
houseflies [4] = conditions: house fly, in vivo
Virus of hepatitis B = assay: microbe, parasite or virus in culture; conditions: 0.5 h, read-out: Death of viruses (%) at 30 minutes exposure, Virus of hepatitis B
[5] = 2 h, read-out: Death of test fungi, % to the control, Candida tropicalis 2 hrs
[6] = 20 h, read-out: Death of test fungi, % to the control, Candida tropicalis 20 hrs
[7] = read-out: Death of ascarid ovi, % Tests laboratory
[8] = 2 h, read-out: Death of test fungi, % to the control, Candida albicans 2 hrs
[9] = 20 h, read-out: Death of test fungi, % to the control, Candida albicans 20 hrs
[10] = H1N1, 0.5 h, read-out: Death of viruses (%) at 30 minutes exposure, Virus of influenza A
[11] = 24 h, read-out: Death of flies, % after 24 hours
[12] = 72 h, read-out: Death of flies, % after 72 hours
[13] = 24 h, read-out: Death of ascarid ovi, % after 24 hours
[14] = 24 h, read-out: Death of ascarid ovi, % after 24 hrs
[15] = 48 h, read-out: Death of ascarid ovi, % after 48 hours
[16] = H1N1, read-out: Virucidal activity of the preparation in respect of the virus of influenza, type A, %
[17] = 48 h, read-out: Death of flies, % after 48 hours
[18] = 72 h, read-out: Death of ascarid ovi, % after 72 hours

O=[N+]([O-])c1ccc(C(O)C(CCl)NP(=O)(O)O)cc1 (centres unmarked) [Example 2, 1-para-nitrophenyl-1--chloro-3-propanolamidophosphoric acid]
killing at 0.5 % (Staphylococcus aureus): 100% | killing at 0.5 % (Colibacillus): 100% | Mycelium growth inhibition, % to the control, Fusarium oxisporum (Fusarium oxysporum): 69% | killing at 0.05 % (Candida tropicalis; [5]): 90% | killing at 0.05 % (Candida tropicalis; [6]): 100% | Mycelium growth inhibition, % to the control, Helminthosporum saturem (Helminthosporum saturem): 88% | Mycelium growth inhibition, % to the control, Alternaria radicina (Alternaria radicina): 60% | killing at 3 % (ascarid ovi; [7]): 100% | Mycelium growth inhibition, % to the control, Penicillium sporum (Penicillium sporum): 68% | Death of viruses (%) at 60 minutes exposure, Infectant of poliomyelitis [1]: 60% | Mycelium growth inhibition, % to the control, Venturia inaequalis (Venturia inaequalis): 64% | killing at 0.05 % (Candida albicans; [8]): 99% | killing at 0.05 % (Candida albicans; [9]): 100% | Mycelium growth inhibition, % to the control, Aspergillus niger (Aspergillus niger): 100%

O=[N+]([O-])c1ccc(C(Cl)C(CCl)NP(=O)(Oc2ccccc2)Oc2ccccc2)cc1 (centres unmarked) [Example 6, 1-para-nitrophenyl-1,3-dichlorisopropylamidophosphoric acid diphenyl ether]
killing at 1 % [2, 10]: 100% | mortality at 3 % (houseflies [3]; [11]): 64.7% | mortality at 3 % (houseflies [3]; [12]): 98.6% | killing at 3 % (ascarid ovi; [7]): 100%

O=[N+]([O-])c1ccc(C(O)C(CCl)NP(=O)(Oc2ccccc2)Oc2ccccc2)cc1 (centres unmarked) [Example 5, diphenyl ether of 1-para-nitrophenyl-1--hydroxy-3-chloroisopropylamidophosphoric acid]
killing at 1 % [2, 10]: 100% | mortality at 3 % (houseflies [3]; [11]): 35.4% | mortality at 3 % (houseflies [3]; [12]): 96% | killing at 3 % (ascarid ovi; [7]): 100%

O=[N+]([O-])c1ccc(C(O)C(CCl)NP(=O)(Nc2ccccc2)Nc2ccccc2)cc1 (centres unmarked) [Example 7, 1-para-nitrophenyl-1-hydroxy-3-chloroisopro-pylamidophosphoric acid dianilide]
killing at 1 % [2, 10]: 100% | mortality at 3 % (houseflies [3]; [11]): 55.1% | mortality at 3 % (houseflies [3]; [12]): 94% | killing at 3 % (ascarid ovi; [7]): 100%

CNC(=S)S [Known ovocidal preparation (carbathion), sodium N-methyldithiocarbamate dihydrate, reference compound]
killing at 2 % (ascarid ovi; [13]): 60% | killing at 3 % (ascarid ovi; [14]): 100% | killing at 2 % (ascarid ovi; [15]): 80% | killing at 3 % (ascarid ovi; [15]): 100% | killing at 3 % (ascarid ovi; [7]): 80%

O=[N+]([O-])c1ccc(C(Cl)C(CCl)NP(=O)(O)Nc2ccccc2)cc1 (centres unmarked) [Example 10, 1-para-nitrophenyl-1,3-dichloropropan--2-amidophosphoric acid monoanilide]
killing at 1 % [2, 10]: 87% | mortality at 3 % (houseflies [3]; [11]): 77% | mortality at 3 % (houseflies [3]; [12]): 99% | killing at 3 % (ascarid ovi; [7]): 100%

O=[N+]([O-])c1ccc(C(O)C(CCl)NP(=O)(O)Oc2ccccc2)cc1 (centres unmarked) [Example 58]
killing at 1 % [2, 16]: 83.4% | killing at 2 % [2, 16]: 86% | mortality at 2 % (houseflies [3]; [17]): 72% | mortality at 2 % (houseflies [3]; [12]): 99% | killing at 2 % (ascarid ovi; [13]): 95.4% | killing at 2 % (ascarid ovi; [15]): 100%

COP(=O)(NC(CCl)C(O)c1ccc([N+](=O)[O-])cc1)OC (centres unmarked) [Example 11, 1-para-nitrophenyl-1-chloro-3-propanolamidophosphoric acid dimethyl ether]
Death of flies, % Tests laboratory (houseflies [4]): 72.7% | killing at 1 % [2, 10]: 74% | mortality at 1 % (houseflies [3]): 67.7% | killing at 3 % (ascarid ovi; [14]): 100% | killing at 3 % (ascarid ovi; [15]): 100% | killing at 3 % (ascarid ovi; [18]): 100%

O=S(=O)(NCl)c1ccccc1 [Known preparation]
killing at 1 % [2, 10]: 25% | killing at 1 % (Virus of hepatitis B): 50% | mortality at 3 % (houseflies [3]; [11]): 86% | mortality at 2 % (houseflies [3]; [17]): 81% | mortality at 2 % (houseflies [3]; [12]): 84% | mortality at 3 % (houseflies [3]; [12]): 92%

O=[N+]([O-])c1ccc(C(Cl)C(CCl)NP(=O)(O)Oc2ccccc2)cc1 (centres unmarked) [Example 59, 1-para-nitrophenyl-1,3-dichloropropane--2-amidophosphoric acid monophenyl ether]
killing at 1 % [2, 16]: 92.3% | killing at 2 % [2, 16]: 96.1% | mortality at 2 % (houseflies [3]; [17]): 60% | mortality at 2 % (houseflies [3]; [12]): 91.2% | killing at 2 % (ascarid ovi; [13]): 91.8% | killing at 2 % (ascarid ovi; [15]): 100%

O=[N+]([O-])c1ccc(C(O)C(CO)NP(=O)(O)O)cc1 (centres unmarked) [Example 1, 1-para-netrophenyl-1,3--propanediolamidophosphoric acid]
killing at 0.5 % (Staphylococcus aureus): 80% | killing at 0.5 % (Colibacillus): 100% | Mycelium growth inhibition, % to the control, Fusarium oxisporum (Fusarium oxysporum): 68% | killing at 0.05 % (Candida tropicalis; [5]): 96% | killing at 0.05 % (Candida tropicalis; [6]): 100% | Mycelium growth inhibition, % to the control, Helminthosporum saturem (Helminthosporum saturem): 54% | Mycelium growth inhibition, % to the control, Alternaria radicina (Alternaria radicina): 75% | killing at 3 % (ascarid ovi; [7]): 100% | Mycelium growth inhibition, % to the control, Penicillium sporum (Penicillium sporum): 58% | Death of viruses (%) at 60 minutes exposure, Infectant of poliomyelitis [1]: 40% | Mycelium growth inhibition, % to the control, Venturia inaequalis (Venturia inaequalis): 32% | killing at 0.05 % (Candida albicans; [8]): 98% | killing at 0.05 % (Candida albicans; [9]): 100% | Mycelium growth inhibition, % to the control, Aspergillus niger (Aspergillus niger): 99%

CCOP(=O)(O)NC(CCl)C(O)c1ccc([N+](=O)[O-])cc1 (centres unmarked) [Example 30]
killing at 1 % [2, 16]: 71.2% | killing at 2 % [2, 16]: 79% | mortality at 2 % (houseflies [3]; [17]): 42.8% | mortality at 2 % (houseflies [3]; [12]): 94% | killing at 3 % (ascarid ovi; [7]): 100%

CCOP(=O)(NC(CCl)C(Cl)c1ccc([N+](=O)[O-])cc1)OCC (centres unmarked) [Example 14, 1-para-nitrophenyl-1,3--dichloropropanamidophosphoric acid diethyl ether]
killing at 1 % [2, 10]: 90% | killing at 3 % (ascarid ovi; [14]): 100% | killing at 3 % (ascarid ovi; [15]): 100% | killing at 3 % (ascarid ovi; [18]): 100%

O=C1C(Cl)=C(Cl)C(=O)c2ccccc21 [Phygon, 2,3-dichloronaphtho-quinone-1,4, reference compound]
Mycelium growth inhibition, % to the control, Fusarium oxisporum (Fusarium oxysporum): 58% | killing at 0.05 % (Candida tropicalis; [5]): 76% | killing at 0.05 % (Candida tropicalis; [6]): 100% | Mycelium growth inhibition, % to the control, Helminthosporum saturem (Helminthosporum saturem): 92% | Mycelium growth inhibition, % to the control, Alternaria radicina (Alternaria radicina): 94% | Mycelium growth inhibition, % to the control, Penicillium sporum (Penicillium sporum): 100% | Mycelium growth inhibition, % to the control, Venturia inaequalis (Venturia inaequalis): 98% | killing at 0.05 % (Candida albicans; [8]): 68% | killing at 0.05 % (Candida albicans; [9]): 100% | Mycelium growth inhibition, % to the control, Aspergillus niger (Aspergillus niger): 100%

O=S(=O)(NCl)c1ccccc1 [Known bactericidal preparation, Sodium N-Chlorobenzenesulphamide, reference compound]
killing at 0.5 % (Staphylococcus aureus): 100% | killing at 0.5 % (Colibacillus): 100% | killing at 1 % [2, 16]: 22% | killing at 2 % [2, 16]: 28%

O=[N+]([O-])c1ccc(C(O)C(CCl)NP(=O)(O)Nc2ccccc2)cc1 (centres unmarked) [Example 9]
killing at 1 % [2, 10]: 78% | mortality at 3 % (houseflies [3]; [11]): 65% | mortality at 3 % (houseflies [3]; [12]): 96% | killing at 3 % (ascarid ovi; [7]): 100%

O=C(N[C@H](COP(=O)(NC(CCl)C(O)c1ccc([N+](=O)[O-])cc1)OC[C@@H](NC(=O)C(Cl)Cl)[C@H](O)c1ccc([N+](=O)[O-])cc1)[C@H](O)c1ccc([N+](=O)[O-])cc1)C(Cl)Cl (some centres unmarked) [Example 32]
killing at 3 % (ascarid ovi; [7]): 100%

CCOP(=O)(O)NC(CCl)C(Cl)c1ccc([N+](=O)[O-])cc1 (centres unmarked) [Example 31, 1-para-nitrophenyl-1,3-dichloropropanamidophosphor-ic acid ethyl ether]
killing at 1 % [2, 16]: 36.9% | killing at 2 % [2, 16]: 46.9% | mortality at 2 % (houseflies [3]; [17]): 44.2% | mortality at 2 % (houseflies [3]; [12]): 91.3% | killing at 3 % (ascarid ovi; [7]): 100%

CCOP(=O)(NC(CCl)C(O)c1ccc([N+](=O)[O-])cc1)OCC (centres unmarked) [Example 13, 1-para-nitrophenyl-1-chloro-3-propanolamidophosphoric acid diethyl ether]
killing at 1 % [2, 10]: 90% | mortality at 1 % (houseflies [3]): 99.6% | killing at 3 % (ascarid ovi; [14]): 100% | killing at 3 % (ascarid ovi; [15]): 100% | killing at 3 % (ascarid ovi; [18]): 100%

O=[N+]([O-])c1ccc(C(Cl)C(CCl)NP(=O)(Nc2ccccc2)Nc2ccccc2)cc1 (centres unmarked) [Example 8, 1-para- . -nitrophenyl-1,3-dichloroisopropylamidophosphoric acid dianilide]
killing at 1 % [2, 10]: 100% | mortality at 3 % (houseflies [3]; [11]): 66.4% | mortality at 3 % (houseflies [3]; [12]): 98% | killing at 3 % (ascarid ovi; [7]): 100%

CCOP(=O)(O)NC(CO)C(O)c1ccc([N+](=O)[O-])cc1 (centres unmarked) [Example 29, 1-para-nitrophenyl-1,3-propanediolamidophos-phoric acid ethyl ether]
killing at 1 % [2, 16]: 83.3% | killing at 2 % [2, 16]: 86.7% | mortality at 2 % (houseflies [3]; [17]): 56% | mortality at 2 % (houseflies [3]; [12]): 92.3% | killing at 3 % (ascarid ovi; [7]): 100%

COP(=O)(NC(CCl)C(Cl)c1ccc([N+](=O)[O-])cc1)OC (centres unmarked) [Example 12, 1-para-nitrophenyl--1,3-dichloropropanamidophosphoric acid dimethyl ether]
killing at 1 % [2, 10]: 85% | mortality at 1 % (houseflies [3]): 71.4% | killing at 3 % (ascarid ovi; [14]): 100% | killing at 3 % (ascarid ovi; [15]): 100% | killing at 3 % (ascarid ovi; [18]): 100%
